In the supplement of paper PMC10307832:

Experiments:
Assay in all cases: relative viability (nuclei count vs DMSO), 5 days (fraction); higher = more cells survive
[1] = compound: CCC1=CN=CN=C1N2CCN(CC2)CC3=NC4=C(N3)C=C(C=C4)C(F)(F)F + O=C(CCCCCCC(=O)Nc1ccccc1)NO [Vorinostat] (partner 1 µM)
Procedure, shortened: (§1)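 Nuclei were stained with Hoechst during a one-step fixation (final 0.05% Triton X-100, 1% formaldehyde, 1 ug/ml Hoechst) carried out 5 days after dosing, then counted on 4× images. The cells, lung cancer lines in 1536-well plates, had been dosed by pin tool the day after seeding with one drug alone or a fixed anchor-drug dose plus five library-drug doses (not always all listed) in √10 steps. Relative viability is the nuclei count in treated wells divided by that in vehicle wells, and each value is the median of duplicate plates.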

[2] = compound: N=C1NC(=O)/C(=C/c2ccc(O)cc2)S1 [Mirin] + COc1cccc2cc(-c3nc([C@H]4CC[C@H](C(=O)O)CC4)n4ncnc(N)c34)[nH]c12 [OSI-027] (partner 0.5 µM)
Procedure, shortened: as §1

[3] = compound: N=C1NC(=O)/C(=C/c2ccc(O)cc2)S1 [Mirin] + C[C@@H](Oc1cc(-c2cnn(C3CCNCC3)c2)cnc1N)c1c(Cl)ccc(F)c1Cl [Crizotinib] (partner 1 µM)
Procedure, shortened: as §1

Row | Cell Line | relative viability ([1]; first compound 0.04 µM) | relative viability ([1]; first compound 0.1265 µM) | relative viability ([1]; first compound 0.4 µM) | relative viability ([1]; first compound 1.265 µM) | relative viability ([1]; first compound 4 µM) | relative viability ([2]; first compound 0.25 µM) | relative viability ([2]; first compound 0.7906 µM) | relative viability ([2]; first compound 2.5 µM) | relative viability ([2]; first compound 7.906 µM) | relative viability ([2]; first compound 25 µM) | relative viability ([3]; first compound 0.25 µM) | relative viability ([3]; first compound 0.7906 µM) | relative viability ([3]; first compound 2.5 µM) | relative viability ([3]; first compound 7.906 µM) | relative viability ([3]; first compound 25 µM)
1 | HCC-15 | 0.864 | 0.831 | 0.789 | 0.76 | 0.82 | 0.81 | 0.557 | 0.614 | 0.585 | 0.466 | 0.841 | 0.866 | 0.888 | 0.803 | 0.802
2 | NCI-H1563 | – | – | – | – | – | 0.697 | 0.816 | 0.744 | 0.731 | 0.648 | 0.914 | 0.836 | 0.837 | 0.96 | 0.888
3 | COR-L 105 | 0.811 | 0.879 | 0.802 | 0.601 | 1.05 | 0.7 | 0.684 | 0.829 | 0.975 | 0.434 | 0.781 | 0.996 | 0.714 | 0.855 | 0.697
4 | NCI-H596 | 0.534 | 0.56 | 0.618 | 0.562 | 0.623 | 0.826 | 0.747 | 0.842 | 0.587 | 0.746 | 0.953 | 0.891 | 1.08 | 1.07 | 1.09
5 | LU99A | 0.608 | 0.486 | 0.528 | 0.466 | 0.652 | 0.284 | 0.288 | 0.299 | 0.288 | 0.278 | 0.526 | 0.463 | 0.499 | 0.499 | 0.37
6 | NCI-H1666 | 1.04 | 1.04 | 0.843 | 0.922 | 0.994 | 0.795 | 0.949 | 0.806 | 0.79 | 0.682 | 0.918 | 1.02 | 1.03 | 0.852 | 0.66
7 | NCI-H2170 | 0.787 | 0.731 | 0.778 | 0.724 | 0.815 | 0.716 | 0.642 | 0.784 | 0.653 | 0.787 | 1.19 | 1.22 | 1.37 | 1.15 | 0.959
8 | NCI-H522 | 0.951 | 1.02 | 0.75 | 0.771 | 0.973 | 0.705 | 0.513 | 0.762 | 0.688 | 0.62 | – | – | – | – | –
9 | LCLC-97TM1 | 0.607 | 0.685 | 0.642 | 0.711 | 0.751 | 0.455 | 0.263 | 0.341 | 0.291 | 0.292 | 0.316 | 0.317 | 0.259 | 0.218 | 0.233
10 | NCI-H1299 | – | – | – | – | – | – | – | – | – | – | 0.991 | 1.05 | 0.947 | 0.997 | 1.08
11 | NCI-H322M | 1.12 | 0.855 | 0.859 | 0.621 | 0.912 | 0.543 | 0.4 | 0.643 | 0.475 | 0.444 | 0.797 | 1.04 | 0.874 | 0.905 | 0.756
12 | NCI-H1395 | 0.575 | 0.574 | 0.7 | – | 0.748 | 0.616 | 0.618 | 0.705 | 0.61 | 0.564 | – | – | – | – | –
13 | NCI-H2009 | 0.775 | 0.698 | 0.753 | 0.61 | 0.639 | 0.646 | 0.662 | 0.706 | 0.413 | 0.522 | 1.08 | 1.11 | 1.01 | 0.853 | 1.16
